According to PMC11926788, “Effect of SSR504734, a Selective Glycine Transporter Type 1 Inhibitor, on Seizure Thresholds, Neurotransmitter Levels, and Inflammatory Markers in Mice” (ACS Chemical Neuroscience, 2025):
Read-outs that look alike come from different tables or passages of the source.

Assays:
[1] = tested on: tonic hindlimb extension in the MEST test in rats; settings: cited from earlier work
[2] = tested on: tonic hindlimb extension in the MEST test in mice; settings: cited from earlier work; for effect on threshold for tonic hindlimb extension: MEST test in mice
[3] = tested on: GlyT1; settings: read-out: IC50 (competitive inhibitor of GlyT1); cited from earlier work
[4] = target: T1, rat GlyT1 (Rattus norvegicus, UniProt P28572); experiment: GlyT1 radioligand binding ([3H]glycine, rat brain cortex, Eurofins Panlabs); settings: rat brain cortex; read-out: IC50 (reference GlyT1 inhibitor in this testing system)
T1 construct: tissue Eurofins Panlabs Discovery Services Taiwan, Ltd. (ran the assay); host or cells: Wistar rat brain cortex
T1 sequence (P28572 1-638): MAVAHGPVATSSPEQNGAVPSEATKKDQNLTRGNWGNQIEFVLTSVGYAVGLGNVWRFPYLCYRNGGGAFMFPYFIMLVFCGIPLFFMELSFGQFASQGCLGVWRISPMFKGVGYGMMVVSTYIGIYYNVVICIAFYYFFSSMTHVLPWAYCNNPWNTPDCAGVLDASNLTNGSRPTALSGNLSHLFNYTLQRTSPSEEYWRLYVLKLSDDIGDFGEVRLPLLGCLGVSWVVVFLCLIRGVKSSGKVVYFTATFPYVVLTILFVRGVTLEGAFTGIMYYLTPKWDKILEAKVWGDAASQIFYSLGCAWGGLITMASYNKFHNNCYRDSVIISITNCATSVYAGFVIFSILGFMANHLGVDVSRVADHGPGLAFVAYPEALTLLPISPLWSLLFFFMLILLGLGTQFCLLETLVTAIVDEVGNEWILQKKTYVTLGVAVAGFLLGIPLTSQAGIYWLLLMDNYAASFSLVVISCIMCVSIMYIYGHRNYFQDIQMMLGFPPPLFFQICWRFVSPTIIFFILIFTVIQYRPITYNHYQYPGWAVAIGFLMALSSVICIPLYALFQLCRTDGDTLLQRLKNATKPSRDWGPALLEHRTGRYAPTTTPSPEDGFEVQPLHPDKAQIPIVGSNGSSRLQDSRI

[5] = tested on: i.v. PTZ-induced seizures; settings: cited from earlier work
[6] = PAMPA (Gentest Precoated PAMPA Plate System); assay type: in vitro ADME; settings: ± SD
Procedure: (§1) A series of in vitro ADME-Tox tests were performed for SSR504734 in order to estimate its drugability. The ADME-Tox parameters including permeability, plasma protein binding, metabolic stability, neurotoxicity, and hepatotoxicity were carried out as described previously.[31],[32] The ability of SSR504734 to penetrate through the biological membrane by passive diffusion was estimated by the Gentest Precoated PAMPA Plate System (Corning, Tewksbury, MA) and expressed as the permeability coefficient (Pe). The protein binding analysis was performed by using the commercial TRANSIL^XL PPB test, which mimics in vitro physiological plasma conditions where human serum albumin (HAS) and alpha-1-acid glycoprotein AGP are present in a 24:1 ratio. The human metabolism of SSR504734 was studied using human liver microsomes (HLMs) provided by Sigma-Aldrich. The hepatotoxicity and neurotoxicity were estimated in cellular models with the use of hepatoma HepG2 and neuroblastoma SH-SY5Y cell lines to perform the preliminary safety tests. The cells were incubated with SSR504734 at the concentration range of 0.1–100 μM. 1 μM cytostatic drug doxorubicin (DX) was used as the reference.

[7] = tested on: neuroblastoma SH-SY5Y cells; experiment: Neurotoxicity, SH-SY5Y cell viability; assay type: cell-based; settings: Homo sapiens; SH-SY5Y, 72 h of incubation
Procedure: as §1
(§2) Figure 8 Effect of cytostatic drug doxorubicin (DX) and SSR504734 on (A) hepatoma HepG2 and (B) neuroblastoma SH-SY5Y cell lines viability after 72 h of incubation at 37 °C, 5% CO2. Data are expressed as means ± SD. Statistical analysis: ****p < 0.0001 vs negative control −1% DMSO in growth media (one-way ANOVA, followed by Dunnett’s post hoc test).
(§3) Figure S8. The effect of cytostatic drug doxorubicin and SSR504734 on (A) hepatoma
(§4) HepG2 and (B) neuroblastoma SH-SY5Y cell line viability after 72 h of incubation at 37 °C,
(§5) 5% CO2. The IC50 values were calculated by GraphPad Prism 8.0.
(§6) (1 picture or pasted object on this page, not shown here)

[8] = tested on: hepatoma HepG2 cells; experiment: Hepatotoxicity, HepG2 cell viability; assay type: cell-based
Procedure: as §1, §2, §3, §4, §5, §6

[9] = Chimney test (motor coordination); assay type: in vivo, mice; settings: 150 mg/kg i.p.
Procedure: The impact of SSR504734 on motor coordination in mice was evaluated by using the chimney test. Each animal was individually placed inside a transparent Plexiglas tube with an inner diameter of 3 cm and a length of 30 cm. The tube was horizontally positioned on a table and shifted vertically once the mouse reached the opposite end. Within a 60 s time frame, the mouse was required to climb backward to escape from the tube. In order to minimize the number of animals used, a chimney test was carried out shortly before seizure tests.
(§7) Table S2. Time-course effect of SSR5504734 on neuromuscular strength and motor […]
(§8) Group Neuromuscular strength Impairment of motor
(§9) SSR504734 was dissolved in normal saline and injected i.p. at the dose of 30 mg/kg. Control animals received saline. The data are expressed as the mean ± SD of grip strengths measured in millinewtons per gram of mouse body weight (mN/g) from the grip-strength test assessing […]
(§10) coordination impairment in the chimney test. Each experimental group consisted of 12 animals. The grip-strength test results were analyzed using a one-way ANOVA with Dunnett’s post hoc test, while the data from the chimney test were statistically evaluated using Fisher’s exact probability test. *p<0.05 vs. control group.
(§11) Table S3. Effect of acute and 14-day treatment with SSR504734 on neuromuscular strength and motor coordination in mice
(§12) In acute studies, SSR504734 and sodium valproate (VPA; positive control) were injected i.p.
(§13) 60 and 15 min before the test, respectively. In subchronic studies, SSR504734 and VPA were injected i.p. every 24 h for 14 days. The last administration was made 60 and 15 min before the tests, respectively. Control animals received saline. Each experimental group consisted of 12 animals. The grip-strength test results were analyzed using a one-way ANOVA with […]
(§14) Fisher’s exact probability test.

[10] = tested on: i.v. PTZ-induced seizures in mice; experiment: Intravenous (i.v.) PTZ seizure threshold test; assay type: in vivo; settings: VPA 150 mg/kg
Procedure: Mice were individually placed in a plastic restrainer (12 cm long, 3 cm inner diameter), and the lateral vein of each mouse was catheterized using a 27-gauge needle (Sterican, B. Braun Melsungen, Melsungen, Germany). The needle was attached by polyethylene tubing (PE20RW, Plastics One Inc., Roanoke, VA, USA) to a 10 mL plastic syringe containing 1% solution of PTZ in saline (Sigma-Aldrich, St. Louis, MO, USA) and mounted to a syringe pump (model Physio 22, Hugo Sachs Elektronik, Harvard Apparatus GmbH, March-Hugstetten, Germany). Piece of adhesive tape was used to secure the needle. The proper placement of the needle in the vein was verified by the appearance of blood in the tubing. During the test, mice were placed in a transparent box for observation. The PTZ solution was administered to freely moving mice at a constant rate of 0.2 mL/min. The time intervals from the initiation of PTZ infusion to the occurrence of the three following end points, i.e., (1) the first myoclonic twitch, (2) generalized clonic seizure with loss of righting reflex, and (3) forelimb tonus, were recorded. The PTZ infusion was terminated when tonic seizures, which were often fatal for the mice, began. All mice that survived were euthanized immediately. The thresholds were calculated separately for each end point using the following formula: threshold dose of PTZ (mg/kg) = infusion duration (s) × infusion rate (mL/s) × PTZ concentration (mg/mL)/body weight (kg). Seizure threshold was expressed as the amount of PTZ (mg/kg) ± SD (standard deviation) needed to produce the first observable sign of each end point. Each group consisted of 12–15 animals.

[11] = tested on: 6 Hz-induced psychomotor seizures in mice; experiment: 6 Hz-induced psychomotor seizure threshold test; assay type: in vivo; settings: SSR504734 any of the doses tested, VPA 150 mg/kg
Procedure: Psychomotor seizures were induced through the application of rectangular pulses (0.2 ms width; 6 pulses per second) for 3 s using a Grass model CCU1 constant current unit coupled to a Grass S48 stimulator (Grass Technologies, Warwick, RI, USA). Stimuli were delivered via saline-soaked transcorneal electrodes. An ocular anesthetic (1% tetracaine hydrochloride) was administered on the animal’s corneas. Mice were restrained manually during stimulation and placed in transparent box immediately for behavioral observation. 6 Hz-induced seizures were characterized by head-nodding, chewing, eye-blinking, twitching of the vibrissae, rearing, stunned posture, forelimb clonus, and Straub tail. The absence of the described features or the return to normal exploratory behavior within 20 s poststimulation was considered as the absence of seizures. The 6 Hz seizure threshold test were conducted on groups of 20 animals stimulated with different current intensities by using the “up-and-down” method described by Kimball et al.[28]
The seizure threshold was quantified as the median current strength (CS50 value with confidence limits for 95% probability), predicting the induction of psychomotor seizures in 50% of the tested animals.

[12] = Grip strength test (neuromuscular strength); assay type: in vivo, mice; settings: 150 mg/kg i.p.
Procedure: The effect of SSR504734 on neuromuscular strength was determined using the grip-strength apparatus (BioSeb, Chaville, France). The apparatus consists of a steel wire grid of 8 × 8 cm, connected to an isometric force transducer. Each mouse was held by the tail, allowing it to grasp the grid with its forepaws only and steadily pulled back until it released the grid. The maximum grip strength value (in newtons; N) was measured three times for each animal. The mean force was normalized to body weight and expressed in mN/g ± SD for each experimental group. In order to minimize the number of animals used, a grip-strength test was carried out shortly before seizure tests.
as §7, §8, §9, §10, §11, §12, §13, §14

[13] = tested on: tonic hindlimb extension in the MEST test in mice; experiment: Maximal electroshock seizure threshold (MEST) test; assay type: in vivo; settings: 150 mg/kg i.p.
Procedure: A sinusoidal current alternation was delivered via saline-soaked transcorneal electrodes. Before stimulation, an ocular anesthetic (1% tetracaine hydrochloride solution obtained from Sigma-Aldrich, St. Louis, MO, USA) was administered to each eye of the mice. During stimulation, the mice were manually immobilized in a hand for 3–5 s and immediately relocated to a transparent box for behavioral observation after the stimulation. Hindlimb tonic extension was taken as an end point. Two experimental approaches were employed: (1) the maximal electroshock seizure threshold (MEST) test at varied current intensities and (2) the maximal electroshock (MES) test at a fixed current intensity.
In the MEST test, seizure thresholds were determined using the “up-and-down” method described by Kimball et al.[28] […] Each mouse was stimulated only once.

## Cc1cccc(C)c1C(=O)N[C@@H](c1ccccc1)C1(N(C)C)CCCC1 [GSK931145]
[1]
  effect on threshold for tonic hindlimb extension: strong, dose-dependent increase

## CN(CCOc1ccc(-c2ccc3c(c2)OCO3)cc1C(C)(C)C)CC(=O)O [LY2365109]
[2]; MEST- and PTZ-induced seizure tests, mice
  effect on seizure thresholds: increased seizure thresholds

## CN(CCC(Oc1ccc(-c2ccccc2)cc1)c1ccc(F)cc1)CC(=O)O (stereo not drawn) [NFPS]
[1]
  effect on threshold for tonic hindlimb extension: strong, dose-dependent increase

## CNCC(=O)O [sarcosine]
[3]
  IC50: 91 µM
[4]
  IC50: 55.8 µM
[5]
  effect in the i.v. PTZ test: devoid of any effect
[2]
  effect on threshold for tonic hindlimb extension: increased the threshold
[2]; listed as Sarcosine
  effect on threshold for tonic hindlimb extension: raised the threshold

## COc1ccc2c(c1)CC[C@H](CN(C)CC(=O)O)[C@@H]2c1ccccc1 [Org25935]
[1]
  effect on threshold for tonic hindlimb extension: strong, dose-dependent increase

## Cn1c(=O)c2c(ncn2C)n(C)c1=O [caffeine]
[6]; PAMPA, read-out: PAMPA Pe
  Papp: 7.77 ± 2.3 ×10⁻⁶ cm/s
[6]
  PAMPA Pe: 7.77 10^–6 cm/s

## COc1cccc2c1C(=O)c1c(O)c3c(c(O)c1C2=O)C[C@@](O)(C(=O)CO)C[C@@H]3O[C@H]1C[C@H](N)[C@H](O)[C@H](C)O1 [doxorubicin]
[7]
  IC50: 0.3 µM
[8]; 1 μM, 72 h
  toxicity to HepG2 cells: highly toxic
[8]; Homo sapiens, HepG2, 72 h of incubation
  IC50: 1.91 µM

## CCCC(CCC)C(=O)O [VPA, sodium valproate]
[9]; 14-day treatment
  Impairment of motor coordination: 0%
[9]; acute treatment
  Impairment of motor coordination: 8.33%
[10]; 14-day treatment i.p.
  effect on thresholds for myoclonic twitch, generalized clonus and forelimb tonus: significantly increased the thresholds
[10]; single administration i.p.
  effect on thresholds for myoclonic twitch, generalized clonus and forelimb tonus: significantly increased the thresholds
[11]; 14-day administration i.p.
  effect on current intensity necessary to induce psychomotor seizures: marked increase
[11]; single administration i.p.
  effect on current intensity necessary to induce psychomotor seizures: marked increase
[12]; 14-day treatment
  Neuromuscular strength: 22.27 ± 4.84 mN/kg
[12]; acute treatment
  Neuromuscular strength: 29.73 ± 4.60 mN/kg
[13]; 14-day administration
  fold increase of seizure threshold: 1.7 fold
[13]; single administration, 15 min before test
  fold increase of seizure threshold: 1.8 fold
